Values quoted from earlier work in article PMC4844649, “A first-in-Asian phase 1 study to evaluate safety, pharmacokinetics and clinical activity of VS-6063, a focal adhesion kinase (FAK) inhibitor in Japanese patients with advanced solid tumors” (Cancer Chemotherapy and Pharmacology, 2016).
Read-outs that look alike come from different tables or passages of the source.

What was measured:
advanced solid tumors = settings: cited from earlier work
[1] = design: method as in earlier work; settings: at the higher doses, phase 1 dose-escalation ref 11, 12; cited from earlier work
[2] = system: Tregs and CD8 + T cells in the tumor microenvironment; design: method as in PMID 26406376; settings: squamous cell carcinoma model ref 17; cited from earlier work

## CN(c1ncccc1CNc1nc(Nc2ccc3c(c2)CC(=O)N3)ncc1C(F)(F)F)S(C)(=O)=O [PF-00562271]
Advanced solid tumors; phase 1 ref 10
  objective radiographic responses: No objective radiographic responses

## CONC(=O)c1ccccc1Nc1cc(Nc2cc(C)nn2C(C)C)ncc1Cl [GSK2256098]
Advanced solid tumors; phase 1 ref 15
  objective radiographic responses: No objective radiographic responses

## COc1cc(C(=O)NC2CCN(C)CC2)c(F)cc1Nc1ncc(C(F)(F)F)c(Oc2cccc3c2C(=O)N(C)C3)n1 [BI 853520]
Advanced solid tumors; phase 1 ref 11, 12
  objective radiographic responses: No objective radiographic responses
[1]
  dose-limiting toxicities: both proteinuria and fatigue were dose-limiting (Grade 3)

## CNC(=O)c1ccccc1Nc1cc(Nc2ccc(N3CCOCC3)cc2OC)ncc1C(F)(F)F [VS-4718]
[2]
  effect on Tregs and CD8 + T cell-mediated anti-tumor response: drives depletion of Tregs and promotes a CD8 + T cell-mediated anti-tumor response
